The record followed here is US20230382920A1, “SHMT Inhibitors” (The Trustees of Princeton University, priority 2020, published 2023).

Bounds are passed on as bounds.

The nature of series [1]: Mouse liver microsome assay (metabolic stability). The format is in vitro ADME. The following applies: mouse liver microsomes; for half-life at 2 µM: in vitro half-life; for microsomal CLint at 2 µM: in vitro intrinsic clearance, read-out: Relative Clint. The method, then:
Example 6. Mouse Liver Microsome Assay
Metabolic stability of several compounds in mouse liver microsomes was tested. Briefly, a master solution was prepared according to Table 31.
Two separate experiments were performed: an experiment with cofactors and an experiment without cofactors. In the experiment with cofactors 40 μL of 10 mM NADPH and 40 μL of 20 mM UDPGA were added to the incubations. The final concentrations of microsomes, NADPH and UDPGA were 0.5 mg/mL, 1 mM and 2 mM, respectively. In the experiment without cofactors 10 μL of 20 mg/mL liver microsomes and 80 μL of ultra-pure H2O were added to the incubations. The final concentration of microsomes was 0.5 mg/mL. The mixture was pre-warmed at 37° C. for 5 minutes.
The reaction was started with the addition of 4 μL of 200 μM control compound or test compound solutions. Verapamil was used as positive control in this study. The final concentration of test compound was 2 μM and the final concentration of control compound was 1 μM. The incubation solution was incubated in water bath at 37° C.
Aliquots of 50 μL were taken from the reaction solution at 0.5, 5, 15, 30, 45 and 60 minutes. The reaction was stopped by the addition of five volumes of cold acetonitrile with IS (100 nM alprazolam, 200 nM caffeine and 100 nM tolbutamide). Samples were centrifuged at 3,220 g for 40 minutes. Aliquot of 100 μL of the supernatant was mixed with 100 μL of ultra-pure H2O and then subject to LC-MS/MS analysis.
All calculations were carried out using Microsoft Excel. Peak areas were determined from extracted ion chromatograms. The slope value, k, was determined by linear regression of the natural logarithm of the remaining percentage of the parent drug versus incubation time curve. The in vitro half-life (in vitro t½) was determined from the slope value:
Conversion of the in vitro t1/2(min) into the in vitro intrinsic clearance (in vitro CLint, in μL/min/mg protein) was done using the following equation (mean of duplicate determinations): […]
For orientation: Liver microsomes are a subcellular fraction often used to study metabolism.

Series [2] has as its system HCT116. Kind of series: HCT116 growth inhibition assay. The format is cell-based. The following applies: without formate. The procedure:
(§1) Example 5. HCT116 Growth Inhibition and Formate Rescue Assays
(§2) 3,000 Cells were plated in each well of a 96-well plate with 80 μL of DMEM media supplemented with 10% dFBS, and incubated for 24 hours. Drugs with or without sodium formate (1 mM) were then added to each well to a final volume of 100 μL. Cell growth was measured as fluorescence intensity by resazurin after four days. In short, resazurin was added to each well to a final concentration of 10 μg·mL^−1. After incubation for one hour, fluorescence was measured by a Synergy HT plate reader (BioTek Instruments).

For series [3], the system named is HCT116. Kind of series: HCT116 formate rescue assay (with sodium formate 1 mM). The format is cell-based. The following applies: Homo sapiens, HCT-116, 96 h, HCT116 growth. The method, then: as §1, §2

In series [1], `Cc1n[nH]c2c1C(c1cc(C#C[C@@H]3C[C@H]3CO)cc(CO)c1)(C(C)C)C(C#N)=C(N)O2` (stereo partly drawn) [KDG-0136] showed a half-life at 2 µM of 10 to 20 min. Also, in series [1], the microsomal CLint at 2 µM was ≤ 70 µL/min/mg. Moreover, the figures for the IC50 result in the series with HCT116 [2] and in the series on HCT116 [3] were “C″” and > 5 µM, respectively.

`Cc1n[nH]c2c1C(c1cc(C#C[C@H]3C[C@@H](C(C)(C)O)C3)cc(C(C)(C)O)c1)(C(C)C)C(C#N)=C(N)O2` (stereo partly drawn) [KDG-0261-100]: in series [1], the half-life at 2 µM is < 5 min and the microsomal CLint at 2 µM is > 250 µL/min/mg. Also, in the series on HCT116 [2], the IC50 entry is listed as “C″”. Besides, in the series on HCT116 [3], the IC50 is > 5 µM.

Regarding `Cc1n[nH]c2c1C(c1cc(C#CC3CCCN3C(=O)OC(C)(C)C)cc(CO)c1)(C(C)C)C(C#N)=C(N)O2` (stereo not drawn) [KDG-0280], in series [1], the half-life at 2 µM was < 5 min and the microsomal CLint at 2 µM was > 250 µL/min/mg. Moreover, the IC50 result with HCT116 [2] was “B″”. Moreover, the IC50 with HCT116 [3] is > 5 µM.

In the case of `Cc1n[nH]c2c1C(c1cc(C#CC3CCN(C(=O)OC(C)(C)C)CC3)cc(CO)c1)(C(C)C)C(C#N)=C(N)O2` (stereo not drawn) [KDG-0289], in series [1], the half-life at 2 µM lay within 5 to 10 min and the microsomal CLint at 2 µM lay within 100 to 250 µL/min/mg. Also, the IC50 result with HCT116 [2] is given as “A″”. Besides, the IC50 with HCT116 [3] was < 0.1 µM.

`Cc1n[nH]c2c1C(c1cc(C#CC3(C)CCN(C(=O)OC(C)(C)C)CC3)cc(CO)c1)(C(C)C)C(C#N)=C(N)O2` (stereo not drawn) [KDG-0296] yielded a half-life at 2 µM in series [1] of 5 to 10 min. Moreover, the microsomal CLint at 2 µM in series [1] fell in the range of 100 to 250 µL/min/mg. For the same molecule, the IC50 entry in the series with HCT116 [2] is “C″”; in the series on HCT116 [3], < 0.1 µM.

Regarding `Cc1n[nH]c2c1C(c1cc(C#CC3(F)CCN(C(=O)OC(C)(C)C)CC3)cc(CO)c1)(C(C)C)C(C#N)=C(N)O2` (stereo not drawn) [KDG-0297], in series [1], the half-life at 2 µM was 5 to 10 min. The microsomal CLint at 2 µM in series [1] is 100 to 250 µL/min/mg. Also, the figures for the IC50 result with HCT116 [2] and with HCT116 [3] were “B″” and > 5 µM, respectively.

In the case of `Cc1n[nH]c2c1[C@](c1cc(C#CC3(C(F)(F)F)CN(C(=O)OC(C)(C)C)C3)cc(CO)c1)(C(C)C)C(C#N)=C(N)O2` [KDG-0301], in series [1], the half-life at 2 µM is ≥ 20 min and the microsomal CLint at 2 µM is ≤ 70 µL/min/mg. Further, in the series on HCT116 [2], the IC50 entry was “A″”. In the series with HCT116 [3], the half-inhibitory concentration (IC50) is > 5 µM.

As for `COC(=O)N1CC(F)(C#Cc2cc(CO)cc([C@@]3(C(C)C)C(C#N)=C(N)Oc4[nH]nc(C)c43)c2)C1` [KDG-0313], in series [1], the half-life at 2 µM is ≥ 20 min and the microsomal CLint at 2 µM was ≤ 70 µL/min/mg. Moreover, the IC50 entry in the series with HCT116 [2] is “B″”. Further, in the series with HCT116 [3], the IC50 is > 5 µM.

As to `Cc1n[nH]c2c1C(c1cc(C#C[C@H]3CC[C@@H](NC(=O)OC(C)(C)C)CC3)cc(CO)c1)(C(C)C)C(C#N)=C(N)O2` (stereo partly drawn) [KDG-0321], in series [1], the half-life at 2 µM was < 5 min and the microsomal CLint at 2 µM is > 250 µL/min/mg. Besides, in the series with HCT116 [2], the IC50 result is “A″”. Besides, the IC50 in the series with HCT116 [3] was < 0.1 µM.

Consider `Cc1n[nH]c2c1C(c1cc(C#CC3CN(C(=O)NC(C)(C)C)C3)cc(CO)c1)(C(C)C)C(C#N)=C(N)O2` (stereo not drawn) [KDG-0412], for which, in series [1], the half-life at 2 µM is 10 to 20 min and the microsomal CLint at 2 µM fell in the range of 70 to 100 µL/min/mg. Further, the IC50 result with HCT116 [2] was “D″”. The IC50 in the series with HCT116 [3] was > 5 µM.

Regarding `[2H]C([2H])(O)c1cc(C#CC2CN(C(=O)OC(C)(C)C)C2)cc(C2(C(C)C)C(C#N)=C(N)Oc3[nH]nc(C)c32)c1` (stereo not drawn) [KDG-0413], in series [1], the half-life at 2 µM is 10 to 20 min and the microsomal CLint at 2 µM is 70 to 100 µL/min/mg. Besides, the IC50 entry with HCT116 [2] is reported as “B″”. In addition, the IC50 with HCT116 [3] was < 0.1 µM.

Take `Cc1c[nH]c2c1C(c1cc(CO)cc(-c3ccc(C4CN(C(=O)OC(C)(C)C)C4)cc3)c1)(C(C)C)C(C#N)=C(N)O2` (stereo not drawn) [KDG-0453]: in series [1], the half-life at 2 µM was 10 to 20 min and the microsomal CLint at 2 µM was 70 to 100 µL/min/mg. The IC50 entry in the series on HCT116 [2] is reported as “A″”. In addition, the IC50 in the series on HCT116 [3] is < 0.1 µM.

With `Cc1nnc(N2CC(C#Cc3cc(CO)cc(C4(C(C)C)C(C#N)=C(N)Oc5[nH]nc(C)c54)c3)C2)o1` (stereo not drawn) [KDG-0472], the half-life at 2 µM in series [1] is ≥ 20 min. Besides, in series [1], the microsomal CLint at 2 µM is ≤ 70 µL/min/mg. In addition, the IC50 result is “C″” with HCT116 [2] and < 0.1 µM in the series on HCT116 [3].

Regarding `Cc1nnc(N2CCC(C#Cc3cc(CO)cc(C4(C(C)C)C(C#N)=C(N)Oc5[nH]nc(C)c54)c3)CC2)o1` (stereo not drawn) [KDG-0478], in series [1], the half-life at 2 µM lay within 5 to 10 min and the microsomal CLint at 2 µM was in the range of 70 to 100 µL/min/mg. In addition, in the series on HCT116 [2], the half-maximal inhibitory concentration (IC50) result was “C″”. Moreover, the IC50 in the series with HCT116 [3] was > 5 µM.

For `Cc1n[nH]c2c1C(c1cc(C#CC34CC(NC(=O)OC(C)(C)C)(C3)C4)cc(CO)c1)(C(C)C)C(C#N)=C(N)O2` (stereo not drawn) [KDG-0502, tert-butyl N-[3-[2-(3-[6-amino-5-cyano-4-isopropyl-3-methyl-1H-pyrano[2,3-c]pyrazol-4-yl]-5-(hydroxymethyl)phenyl)ethynyl]bicyclo[1.1.1]pentan-1-yl]carbamate], in series [1], the half-life at 2 µM was ≥ 20 min and the microsomal CLint at 2 µM is ≤ 70 µL/min/mg. Also, in the series with HCT116 [2], the IC50 result is reported as “B″”. In addition, the IC50 with HCT116 [3] is < 0.1 µM.

By half-life is commonly meant the time in which the quantity being followed falls by half. A lower half-life goes with fast loss. As a reminder, the IC50 is the point on the concentration scale where inhibition reaches its midpoint.
